Experimental data published in BindingDB's records for doi:10.1074/jbc.M600168200 (Duke University Medical Center, 2006).

What was measured:
[1] = molecular target: Geranylgeranyl transferase type-1 subunit beta [A2V]/Protein farnesyltransferase/geranylgeranyltransferase type-1 subunit alpha (Homo sapiens, UniProt P49354+P53609, A2V); experiment: In Vitro FTase/GGTase-1 Inhibition Assay; details: pH 7.7; 30 °C
Experimental: (§1) Compounds were tested as inhibitors of FTase or GGTase-1 in vitro using purified recombinant mammalian enzymes to catalyze the reactions between [3H] FPP or [3H]GGPP, and recombinant protein substrates. Incorporation of radiolabeled isoprenoid into Ras protein substrate was quantitated by precipitation of total protein with acid and scintillation counting. The inhibitory activity of the compounds is reported as an IC50 value, the concentration of inhibitor required to reduce radiolabel incorporation by 50% compared with an uninhibited control experiment.

[2] = molecular target: Protein farnesyltransferase subunit beta/geranylgeranyltransferase type-1 subunit alpha (Homo sapiens, UniProt P49354+P49356); experiment: In Vitro FTase/GGTase-1 Inhibition Assay; details: pH 7.7; 30 °C
Experimental: as §1

Geranylgeranyl transferase type-1 subunit beta [A2V]/Protein farnesyltransferase/geranylgeranyltransferase type-1 subunit alpha, sequence (P53609 whole entry A2V, other chains not shown): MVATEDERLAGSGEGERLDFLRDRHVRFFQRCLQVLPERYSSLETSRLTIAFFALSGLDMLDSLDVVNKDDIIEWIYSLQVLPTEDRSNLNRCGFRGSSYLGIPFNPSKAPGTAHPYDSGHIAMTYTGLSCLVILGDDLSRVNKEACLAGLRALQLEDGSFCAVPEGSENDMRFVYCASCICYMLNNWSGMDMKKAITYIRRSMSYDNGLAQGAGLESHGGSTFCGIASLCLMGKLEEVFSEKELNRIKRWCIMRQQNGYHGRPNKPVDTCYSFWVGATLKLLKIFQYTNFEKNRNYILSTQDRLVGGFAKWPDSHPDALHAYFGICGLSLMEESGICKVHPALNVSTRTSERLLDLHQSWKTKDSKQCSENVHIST

IC50 [1]: 8.24 nM
IC50 [2]: > 2000 nM
SMILES: CSCCc1c(-c2cccnc2)nn(-c2ccc(Cl)c(Cl)c2)c1OCCCC(=O)N[C@@H](Cc1ccccc1)C(N)=O [N-[(S)-1-carbamoyl-2-phenylethyl]-4-[2-(3,4-di-chlorophenyl)-4-(2-methylsulfanylethyl)-5-pyridin-3-yl-2-H-pyrazol-3-yloxy]butyramide]
